These results are taken from patent US7037693B2, “Muskmelon (Cucumis melo) hydroperoxide lyase and uses thereof” (Vanderbilt University, priority 2000, dated 2006).

Values joined by “and” are separate entries in the source; they are usually repeats but may differ in a detail not shown here. Equal values may be shown once.

Series [1] deals with melon 9-hydroperoxide lyase (9-HPL) (Cucumis melo, UniProt A0A1S3BZK9). Kind of series: Kinetics of melon 9-HPL with fatty acid hydroperoxide substrates (spectrophotometric assay, decrease in absorbance at 235 nm). Conditions: relative to 9-hydroperoxylinolenic acid; 'preferably approximately' value. Type of series: biochemical. As for the experimental part: The resulting pellet of cells was resuspended in Tris-acetate buffer (0.1 M, pH 7.6) containing sucrose (0.5 M), EDTA (0.5 mM) and lysozyme (1 mg/ml). After 30 min on ice, the mixture was centrifuged as before to obtain a pellet of spheroplastes. These were resuspended in potassium phosphate buffer (0.1 M, pH 7.6) containing magnesium acetate (6 mM), glycerol (20% v/v) and DTT (0.1 mM) and the mixture left for 10 min at −80° C. Following this, a protease inhibitor was added (PMSF, 1 mM) and the cells sonicated (2×30 seconds). […] Compared to the control protein produced from vector alone with no cDNA insert, there was less protein, but the bacterial lysates of each gave easily measurable catalytic activity. By monitoring the disappearance of the UV-235 nm absorbance of the fatty acid hydroperoxide substrates, less than 1 μl (<10 μg crude protein) of the suspended and lysed bacterial pellets were required in order to observe reaction in a 1 ml UV cuvette. Measurement was made using the spectrophotometric assay (decrease in absorbance at 235 nm) and the initial rates of reaction. The turnover number of the purified 9-HPL enzyme (number of product molecules formed per molecule of enzyme) using 9S-hydroperoxylinoleic acid as substrate was calculated from the known concentration of the enzyme (measured at the Soret maximum at 416 nm, and using a molar extinction coefficient of 100,000), and the measured rates of change of substrate concentration (using the molar extinction coefficient of 23,000 at 235 nm of the conjugated diene).

Substrate in series [2]: CC/C=C\C[C@@H](/C=C/C=C\CCCCCCCC(=O)O)OO
The description is as above. The class given is biochemical, Cucumis melo. Conditions: 95% confidence limits given; pH 7.6. As for the experimental part:
(§1) The resulting pellet of cells was resuspended in Tris-acetate buffer (0.1 M, pH 7.6) containing sucrose (0.5 M), EDTA (0.5 mM) and lysozyme (1 mg/ml). After 30 min on ice, the mixture was centrifuged as before to obtain a pellet of spheroplastes. These were resuspended in potassium phosphate buffer (0.1 M, pH 7.6) containing magnesium acetate (6 mM), glycerol (20% v/v) and DTT (0.1 mM) and the mixture left for 10 min at −80° C. Following this, a protease inhibitor was added (PMSF, 1 mM) and the cells sonicated (2×30 seconds). […] By monitoring the disappearance of the UV-235 nm absorbance of the fatty acid hydroperoxide substrates, less than 1 μl (<10 μg crude protein) of the suspended and lysed bacterial pellets were required in order to observe reaction in a 1 ml UV cuvette. Measurement was made using the spectrophotometric assay (decrease in absorbance at 235 nm) and the initial rates of reaction. The turnover number of the purified 9-HPL enzyme (number of product molecules formed per molecule of enzyme) using 9S-hydroperoxylinoleic acid as substrate was calculated from the known concentration of the enzyme (measured at the Soret maximum at 416 nm, and using a molar extinction coefficient of 100,000), and the measured rates of change of substrate concentration (using the molar extinction coefficient of 23,000 at 235 nm of the conjugated diene).

Substrate in series [3]: CCCCC/C=C\C=C\[C@H](CCCCCCCC(=O)O)OO
Described as above. Type of series: biochemical, Cucumis melo. Conditions: 95% confidence limits given; pH 7.6. The procedure: as §1

Series [4] is described as follows: pH dependence of the activity of the lyase. The class given is biochemical, Cucumis melo.

Take `CCCCC[C@@H](/C=C/C=C\CCCCCCCC(=O)O)OO` [13-hydroperoxylinoleic acid, (9Z,11E,13S)13-hydroperoxyoctadeca-9,11-dienoic acid]: the “Vmax as percentage of the Vmax of the lyase for 9-hydroperoxylinolenic acid” value in series [1] is listed as “approximately 30%”. On the same count and under the same terms, as for `CC/C=C\C[C@@H](/C=C/C=C\CCCCCCCC(=O)O)OO` [13-hydroperoxylinolenic acid, (9Z, 11E, 13S, 15Z) 13-hydroperoxyoctadeca-9,11,15-trienoic acid], the entry is “approximately 22%”. Consider `CCCCC/C=C\C=C\[C@H](CCCCCCCC(=O)O)OO` [9-hydroperoxylinoleic acid, (9S, 10E, 12Z) 9-hydroperoxyoctadeca-10,12-dienoic acid], for which, in series [1], the “Km as percentage of the Km of the lyase for 9-hydroperoxylinolenic acid” value is “approximately 54%” and the “Vmax as percentage of the Vmax of the lyase for 9-hydroperoxylinolenic acid” value is on record as “approximately 55%”.

B1: melon 9-hydroperoxide lyase (9-HPL) (Cucumis melo) (protein)
chain: MATPSSSSPELPLKPIPGGYGFPFLGPIKDRYDYFYFQGRDEFFRSRITKYNSTVFRANMPPGPFISSDSRVVVLLDALSFPILFDTAKVEKRNILDGTYMPSLSFTGNIRTCAYLDPSETEHSVLKRLFLSFLASRHDRFIPLFRSSLSEMFVKLEDKLSEKKKIADFNSISDSMSFDYVFRLLSDGTPDSKLAAEGPGMFDLWLVFQLAPLASIGLPKIFSVFEDLVIHTIPLPFFPVKSGYRKLYEAFYSSSGSFLDEAEKQGIDREKACHNLVFLAGFNAYGGMKVLFPTLLKWVGTAGEDLHRKLAEEVRTTVKEEGGLTFSALEKMSLLKSVVYEALRIEPPVPFQYGKAKEDIVIQSHDSSFKIKKGETIFGYQPFATKDPKIFKDSEKFVGDRFVGEEGEKLLKYVYWSNERETVEPTAENKQCPGKNLVVLIGRIMVVEFFLRYDTFTVEVADLPLGPAVKFKSLTRATDMV
Usually Km stands for the substrate concentration at which the rate is half of its maximum. Take B1: the Km in series [2] is 50 µM and 51 µM; in series [3], 192 µM.

B2: lyase: fatty acid 9-hydroperoxide lyase of muskmelon (Cucumis melo), SEQ ID NO:7, recombinantly expressed in E. coli (protein)
chain: MATPSSSSPELPLKPIPGGYGFPFLGPIKDRYDYFYFQGRDEFFRSRITKYNSTVFRANMPPGPFISSDSRVVVLLDALSFPILFDTAKVEKRNILDGTYMPSLSFTGNIRTCAYLDPSETEHSVLKRLFLSFLASRHDRFIPLFRSSLSEMFVKLEDKLSEKKKIADFNSISDSMSFDYVFRLLSDGTPDSKLAAEGPGMFDLWLVFQLAPLASIGLPKIFSVFEDLVIHTIPLPFFPVKSGYRKLYEAFYSSSGSFLDEAEKQGIDREKACHNLVFLAGFNAYGGMKVLFPTLLKWVGTAGEDLHRKLAEEVRTTVKEEGGLTFSALEKMSLLKSVVYEALRIEPPVPFQYGKAKEDIVIQSHDSSFKIKKGETIFGYQPFATKDPKIFKDSEKFVGDRFVGEEGEKLLKYVYWSNERETVEPTAENKQCPGKNLVVLIGRIMVVEFFLRYDTFTVEVADLPLGPAVKFKSLTRATDMV
modifications: Cucumis melo
On to B2, for which the “activity as percentage of maximal activity” value in series [4] (pH 5.0) is given as “approximately 25%”; in series [4] (pH 9.0), “approximately 15%”.
